“Also recorded” adds a separate entry of the source. Peptide text beside a SMILES is read from it. * marks the point of attachment. Cbz = O=C(OCc1ccccc1)*; CH2F = FC*
Assays:
[1] = test system: A549 cells; assay: Proliferation of A549 cells (cell counts after 72 h / 3 days); assay type: cell-based, human; details: 500 μM added to culture medium, cells counted after 3 days (72 h)
Protocol: FIG. 1. Effect of L- and D-Cysteine, each tested at 500 microM, on the proliferation of A549 cells. Cells were counted 3 days after addition of L- or D-Cysteine. (CM=culture medium)
(§1) A549 lung tumor cells (FIG. 5A) or BEAS-2B normal bronchial epithelial cells (FIG. 5B) were cultured in complete media (CM) in the absence or presence of 500 μM D-cysteine (D-Cys). Cell numbers were analyzed after 72 h and after splitting of cells (p1). Cell numbers are expressed as % of cells cultured in the absence of D-cysteine. **** P<0.0001.
(§2) We therefore decided to test whether the D-cysteine-mediated inhibition of OCR could affect cell growth in a regular normal medium complemented with fetal calf serum. Most culture media used for cell culture contain 300 μM L-cystine. […] Importantly, some cancer cell lines, including HeLa cells (FIG. 4A), the MPM cell line H2052/484 (FIG. 4B), and osteosarcoma cell line 143B (not shown), were insensitive both in 2D cultures or in colony formation assays. The decrease in numbers of cells seen after 72 h exposure to D-cysteine was due to decreased cell proliferation. […] Importantly, in contrast to the results with cancer cells, normal human bronchial epithelial BEAS-2B cells were resistant to D-cysteine exposure even at very high concentration (FIG. 5B).

[2] = test system: A549 cells; assay: Cell death of A549 cells exposed to D-cysteine (passage p1, caspase 3 Western blotting, zVAD-fmk, CRISPR screen selection); assay type: cell-based, human
Protocol: as §1, §2
For these experiments a pooled lentiviral CRISPR library (Addgene) targeting 19114 human genes was used to infect A549 cells, stably expressing the Cas9 nuclease. Cells were then cultured in the presence of 0.5 mM D-cysteine, a concentration sufficient to induce A549 cell death. After 2-3 weeks, the surviving clones were recovered and the sgRNAs were amplified by PCR and sequenced using next-generation sequencing (NGS) to identify the targeted genes (FIG. 6).

[3] = test system: LuCa62 lung adenocarcinoma cells; assay: Colony formation / spheroid formation assay, LuCa62; assay type: cell-based, human; details: colony formation (0.1 mM, 2 weeks) or spheroids (0.1, 0.2 or 0.5 mM, 17 days)
Protocol: (§3) FIGS. 4A-4D: D-cysteine affects tumor cell viability. Colony formation assays in presence or absence 0.1 mM D-cysteine (D-Cys) for 2 weeks. FIG. 4A: Lung tumor cell lines+cervix cell line (HeLa). FIG. 4B: MPM cell lines. FIG. 4C: A549. FIG. 4D: LuCa62 spheroid formation in presence or absence of 0.1 mM, 0.2 mM or 0.5 mM D-cysteine for 17 days.
as §2

[4] = test system: H1299 lung adenocarcinoma cells; assay: Colony formation / proliferation, H1299; assay type: cell-based; details: colony formation assays or spheroids
Protocol: as §3, §2

[5] = test system: BZR tumorigenic bronchial epithelial cells; assay: Colony formation / proliferation, BZR; assay type: cell-based; details: colony formation assays or spheroids
Protocol: as §3, §2

[6] = test system: MDA-MB-231 triple-negative breast cancer cells; assay: Colony formation / proliferation, MDA-MB-231; assay type: cell-based; details: colony formation assays or spheroids
Protocol: as §2

[7] = test system: A375 melanoma cells; assay: Colony formation / proliferation, A375; assay type: cell-based; details: colony formation assays or spheroids
Protocol: as §2

[8] = test system: cell lines derived from malignant pleural mesothelioma (MPM); assay: Colony formation, MPM cell lines; assay type: cell-based; details: colony formation assays or spheroids
Protocol: as §3, §2

[9] = test system: HeLa cells; assay: 2D culture / colony formation, HeLa; assay type: cell-based; details: 2D cultures or colony formation assays
Protocol: as §3, §2

[10] = test system: MPM cell line H2052/484; assay: 2D culture / colony formation, H2052/484; assay type: cell-based; details: 2D cultures or colony formation assays
Protocol: as §3, §2

[11] = test system: osteosarcoma cell line 143B; assay: 2D culture / colony formation, 143B; assay type: cell-based; details: 2D cultures or colony formation assays; not shown
Protocol: as §2

[12] = test system: BEAS-2B normal bronchial epithelial cells; assay: Proliferation of BEAS-2B normal cells; assay type: cell-based, human; details: 500 μM; 72 h and after splitting (p1); even at very high concentration
Protocol: as §1, §2

[13] = test system: A549 cells; assay: Oxidized (GSSG) and total (GSH) glutathione levels in A549 cells; assay type: cell-based, human; details: 500 μM, 72 h
Protocol: (§4) A549 cells were cultured for 72 h in complete medium (CM) with or without 500 μM D-cysteine (D-Cys) and different cellular characteristics were analyzed. FIG. 8A: Oxidized (GSSG) and total (GSH) glutathione levels. FIG. 8B: Mitochondrial ROS production by MitoSOX staining. FIG. 8C: Lipid peroxidation by Bodipy C11 staining. MFI=Mean of Fluorescence Intensity (Flow cytometry). * P<0.05.
(§5) We first tested whether D-cysteine could trigger ferroptosis. Ferroptosis is a type of death due to iron-mediated ROS production and lipid peroxidation. In most cases, it is triggered by decreased glutathione levels.

[14] = test system: A549 cells; assay: Mitochondrial ROS production by MitoSOX staining; assay type: cell-based, human; details: 500 μM, 72 h
Protocol: as §4, §5

[15] = test system: A549 cells; assay: Lipid peroxidation by Bodipy C11 staining; assay type: cell-based, human; details: 500 μM, 72 h
Protocol: as §4, §5

[16] = test system: A549 cells; assay: Iron concentration in A549 cells by ICP-MS; assay type: cell-based, human; details: 72 h
Protocol: FIG. 3. Iron concentration in A549 cells cultured in the presence or absence of D-Cysteine for 72 h. Iron was measured using ICP-MS (Inductively coupled plasma mass spectrometry).
Moreover, D-cysteine could also trigger ferritinophagy, which is a process triggered in cells lacking iron. The most likely explanation is that D-cysteine, which accumulates in cells since it is not consumed during protein synthesis or other pathways, can react with iron through its thiol group, thus acting as an iron chelator. […] As a consequence, intracellular iron is depleted, and cells trigger ferritinophagy releasing ferric iron, thus leading to ROS production, lipid peroxidation and cell death.

[17] = test system: A549 cells; assay: Proteome analysis (LC-MS/MS with TMT) of A549 cells exposed to D-cysteine; assay type: cell-based, human; details: 500 μM, 72 h, FDR<0.01
Protocol: To understand how D-cysteine modifies protein expression, A549 cells were grown in the presence of D-cysteine for 3 days and total cellular proteins were compared to control cells grown in parallel in the presence of L-cysteine. For these experiments liquid chromatography-tandem mass spectrometry (LC-MS/MS) coupled with tandem mass tagging (TMT) was employed, a procedure which enables simultaneous protein identification and relative quantification of two different samples in the same proteomics experiment.
Proteome analysis of A549 cells cultured in the absence or presence of 500 μM D-cysteine for 72 h. […] FC=Fold change.

[18] = test system: A549 cells; assay: Mitochondrial respiration (OCR) of A549 cells; assay type: cell-based, human; details: 500 μM, 72 h
Protocol: FIG. 9: D-cysteine impairs mitochondrial respiration of lung tumor cells. A549 cells were cultured for 72 h in complete media (CM) supplemented or not with 500 μM D-cysteine (D-Cys), and oxygen consumption rate (OCR) was quantified both before (basal respiration) and after sequential addition of oligomycin and FCCP (maximal respiration).

[19] = D-cysteine quantification in blood (serum) of mice after gavage; assay type: in vivo; details: 500 mg/kg by gavage, no DAAO inhibitor, data not shown
Protocol: As described below, we have initiated experiments in which we administer D-cysteine (500 mg/kg) by gavage, and using the technique described in^37, we have measured the levels of D-cysteine in serum. […] We reasoned that the enzyme D amino oxidase (DAAO), which is known to oxidize D-amino acids and which in mice is highly expressed in the kidney, could explain the rapid clearance of D-cysteine from the blood. We therefore co-administered D-cysteine with an inhibitor of DAAO (JHU 1377). Using this protocol, we achieved higher levels of D-cysteine in the blood (Table 2) and indeed levels higher than that needed to repress tumor cell growth in vitro. Thus far we have only assessed the pharmacokinetics of D-cysteine during the first 6 h following administration. In future experiments we plan to repeat the analysis over longer time periods.
DAAO inhibitor JHU 1377 (30 mg/kg) was injected into mice, followed 2 h later by D-cysteine gavage (500 mg/kg). Blood was collected after 2, 4, and 6 h and levels of L- and D-cysteine were quantified in the serum.

[20] = test system: A549 lung cancer cells; assay: Proliferation of A549 cells with D-cysteine and 3-MST inhibitor HMPSNE; assay type: cell-based, human; details: D-cysteine 100 μM and/or HMPSNE
Protocol: (§6) A549 lung tumor cells (FIG. 10A) or MDA-MB-231 breast tumor cells (FIG. 10B) were cultured in complete media (CM) in the absence or presence of 100 μM D-cysteine (D-Cys), with (grey bars) or without (black bars) HMPSNE, a cell-membrane permeable inhibitor of 3-MST. Cell numbers were counted after 72 hours. * P<0.05, ** P<0.01, *** P<0.001, **** P<0.0001.
(§7) Furthermore, as mentioned above, it exerts toxic effects via iron chelation. Therefore, to survive D cysteine, cells need to increase its catabolism. There are two main pathways for cysteine catabolism: one is via its enzymatic breakdown to produce hydrogen sulfur and organic intermediates that will serve as carbon sources, and the second is via oxidative metabolism through cysteine dioxygenase 48. Inhibition of cysteine catabolism can be obtained with inhibitors of the key enzymes participating in this pathway. We have used a commercially available inhibitor of 3-MST, HMPSNE 49 to inhibit the enzyme in A549 lung cancer cells and in MDA-MB-231 breast cancer cells in the presence or absence of D cysteine.

[21] = test system: MDA-MB-231 breast cancer cells; assay: Proliferation of MDA-MB-231 cells with D-cysteine and 3-MST inhibitor HMPSNE; assay type: cell-based; details: D-cysteine 100 μM and/or HMPSNE
Protocol: as §6, §7

[22] = rat; 500 mg/kg daily by gavage for one month; cited from earlier work
[23] = test system: mitochondrial respiration; assay: Oxygen consumption rate of cells in poor medium with single amino acids; assay type: cell-based; details: cells in poor medium containing only glucose, each amino acid tested separately; data not shown

## N[C@H](CS)C(=O)O [D-cysteine]
[1]
  proliferation of A549 cells: inhibited the proliferation; also recorded: impairs proliferation of tumor cells
[2]; A549, 500 μM D-cysteine, after 72 hours, following first passage
  cell death after first passage of cells (p1): extensive cell death
[2]; A549 cells stably expressing Cas9, culture 2-3 weeks
  concentration sufficient to induce A549 cell death: 0.5 mM
[2]; D-cysteine-exposed cells, data not shown
  caspase 3 by Western blotting: No increase in caspase 3
[3]
  antiproliferative effect, LuCa62: antiproliferative effect
[4]
  antiproliferative effect, H1299: antiproliferative effect
[5]
  antiproliferative effect, BZR: antiproliferative effect
[6]
  antiproliferative effect, MDA-MB-231: antiproliferative effect
[7]
  antiproliferative effect, A375: antiproliferative effect
[8]
  antiproliferative effect, MPM-derived cell lines: antiproliferative effect
[9]
  sensitivity of HeLa cells: insensitive
[10]
  sensitivity of MPM cell line H2052/484: insensitive
[11]
  sensitivity of osteosarcoma cell line 143B: insensitive
[12]
  proliferation of normal BEAS-2B cells: resistant
[13]
  glutathione levels: did not induce a drop in glutathione
[14]
  mitochondrial ROS production: induced ROS production; also recorded: induces an increase
[15]
  lipid peroxidation: induced; also recorded: induces an increase
[16]
  cellular iron (ICP-MS): decrease in cellular iron
[17]
  FC (log2) CIAO1 protein: −1.179 log2
  FC (log2) COX4I1 protein: −0.6951 log2
  FC (log2) MT-CO3 protein: −1.538 log2
  FC (log2) MT-ND4 protein: −1.86 log2
  FC (log2) NDUFA4 protein: −0.5939 log2
  FC (log2) NDUFA5 protein: −0.8033 log2
  FC (log2) NDUFA7 protein: −1.584 log2
  FC (log2) NDUFA9 protein: −0.5906 log2
  FC (log2) NDUFA10 protein: −0.8723 log2
  FC (log2) NDUFA12 protein: −0.6836 log2
  FC (log2) NDUFS1 protein: −1.133 log2
  FC (log2) NDUFS4 protein: −0.9309 log2
  FC (log2) NDUFS7 protein: −0.8355 log2
  FC (log2) NDUFS8 protein: −0.8273 log2
  FC (log2) NDUFV1 protein: −1.064 log2
  FC (log2) NDUFV2 protein: −0.7451 log2
  FC (log2) SDHB protein: −1.214 log2
[18]
  basal oxygen consumption: strongly impaired
[18]; after oligomycin and FCCP
  maximal oxygen consumption: strongly impaired
[19]
  initial level of D-cysteine in the blood: around 200 μM
[19]; mouse, serum, oral, read-out: level of D-cysteine in the blood within the first 2 h
  concentration at 2 h: 5 µM
[20]
  cell proliferation (cell numbers after 72 hours), A549: did not significantly alter the growth
[21]
  cell proliferation (cell numbers after 72 hours), MDA-MB-231: did not significantly alter the growth
[22]
  adverse effect on the animals: no adverse effect

## N[C@H](CSSC[C@@H](N)C(=O)O)C(=O)O [D-cystine]
[1]
  proliferation of A549 cells: inhibited the proliferation

## Cc1cc(=O)[nH]c(SCC(=O)c2cccc3ccccc23)n1 [HMPSNE]
[20]
  cell proliferation (cell numbers after 72 hours), A549: significant impact; also recorded: potentiates the anti-proliferative effect of D-cysteine
[21]
  cell proliferation (cell numbers after 72 hours), MDA-MB-231: significant impact; also recorded: potentiates the anti-proliferative effect of D-cysteine

## N[C@@H](CS)C(=O)O [L-cysteine, reference compound]
[1]
  proliferation of A549 cells: had no effect
[1]; listed as L form of cysteine
  proliferation of A549 cells: no adverse effect
[23]
  inhibitory effect on oxygen consumption rate (OCR): responsible for the observed effect

## COC(=O)C[C@H](NC(=O)[C@H](C)NC(=O)[C@@H](NC(=O)OCc1ccccc1)C(C)C)C(=O)CF [zVAD-fmk, reference compound] (Cbz-Val-Ala-Asp(OMe)-CH2F)
[2]; added to D-cysteine-exposed cells, data not shown
  protection from D-cysteine-induced cell death by added pan-caspase inhibitor: did not protect the cells
